Converted amounts (≈) assume the structure as drawn.
What was measured:
Assay in all cases: In vitro antibacterial evaluation: minimum inhibitory concentration (MIC), broth dilution method
Format in all cases: cell-based
Conditions in all cases: 18 hours at 35° C.
Enterococcus sp. = tested on: Enterococcus sp.
Procedure, shortened: (§1)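 Values are minimum inhibitory concentrations, meaning the smallest antibiotic concentration that stops growth of the organism. They come from broth dilution in Muller-Hinton II […] per NCCLS guidance (M7-A2), using 5×10^5 CFU/mL and concentrations from 64 to 0.06 μg/mL.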

Escherichia coli = tested on: Escherichia coli
Procedure, shortened: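 Broth dilution per NCCLS M7-A2 in Muller-Hinton II […], inoculum 5×10^5 CFU/mL, antibiotic tested over 64-0.06 μg/mL. MIC is taken as the lowest concentration that inhibits growth. Panel includes recent clinical isolates resistant to methicillin, penicillin and/or vancomycin.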

Staphylococcus sp. = tested on: Staphylococcus sp.
Procedure, shortened: as §1

Streptococcus sp. = tested on: Streptococcus sp.
Procedure, shortened: as §1

[1] = broth dilution, inoculum 5×10^5 CFU/mL

Cc1ccc(COCC2OC(OC3C(CO)OC(Oc4ccc(CC5NC(=O)C(C(C)c6ccccc6)NC(=O)CNC(=O)C(CO)NC(=O)C(C(O)C6CNC(=N)N6C6OC(CO)C(O)C(O)C6O)NC(=O)C(C(O)C6CNC(=N)N6)NC5=O)cc4)C(O)C3O)C(O)C(O)C2O)cc1 (stereo not shown) [Example 234]
MIC Enterococcus avium (GC 4558) (Enterococcus sp.; Enterococcus avium (GC 4558)): 8 µg/mL (≈ 5.72 µM) | MIC Enterococcus faecalis (ATCC 29212) (Enterococcus sp.; Enterococcus faecalis (ATCC 29212)): 8 µg/mL (≈ 5.72 µM) | MIC Enterococcus faecalis (GC 2242) (Enterococcus sp.; Enterococcus faecalis (GC 2242)): 4 µg/mL (≈ 2.86 µM) | MIC Enterococcus faecalis (GC 2691) (Enterococcus sp.; Enterococcus faecalis (GC 2691)): 8 µg/mL (≈ 5.72 µM) | MIC Enterococcus faecalis (GC 3059) (Enterococcus sp.; Enterococcus faecalis (GC 3059)): 8 µg/mL (≈ 5.72 µM) | MIC Enterococcus faecalis (GC 4552) (Enterococcus sp.; Enterococcus faecalis (GC 4552)): 8 µg/mL (≈ 5.72 µM) | MIC Enterococcus faecalis (GC 4553) (Enterococcus sp.; Enterococcus faecalis (GC 4553)): 8 µg/mL (≈ 5.72 µM) | MIC Enterococcus faecalis (GC 4554) (Enterococcus sp.; Enterococcus faecalis (GC 4554)): 8 µg/mL (≈ 5.72 µM) | MIC Enterococcus faecalis (GC 6189) (Enterococcus sp.; Enterococcus faecalis (GC 6189)): 8 µg/mL (≈ 5.72 µM) | MIC Enterococcus faecium (GC 2243) (Enterococcus sp.; Enterococcus faecium (GC 2243)): 8 µg/mL (≈ 5.72 µM) | MIC Enterococcus faecium (GC 4556) (Enterococcus sp.; Enterococcus faecium (GC 4556)): 8 µg/mL (≈ 5.72 µM) | MIC Enterococcus faecium (GC 4557) (Enterococcus sp.; Enterococcus faecium (GC 4557)): 2 µg/mL (≈ 1.43 µM) | MIC Enterococcus faecalis (GC 2242) (Enterococcus sp.; [1]): 4 µg/mL (≈ 2.86 µM) | MIC Enterococcus faecalis (GC 2691) (Enterococcus sp.; [1]): 8 µg/mL (≈ 5.72 µM) | MIC Enterococcus faecalis (GC 3059) (Enterococcus sp.; [1]): 8 µg/mL (≈ 5.72 µM) | MIC Escherichia coli (ATCC 25922) (Escherichia coli; Escherichia coli (ATCC 25922)): 64 µg/mL (≈ 45.7 µM) | MIC Escherichia coli (GC 4559) (Escherichia coli; Escherichia coli (GC 4559)): 64 µg/mL (≈ 45.7 µM) | MIC Escherichia coli (GC 4560) (Escherichia coli; Escherichia coli (GC 4560)): 1 µg/mL (≈ 0.715 µM) | MIC Coagulase Negative Staphylococcus (GC 4547) (Staphylococcus sp.; Coagulase Negative Staphylococcus (GC 4547)): 1 µg/mL (≈ 0.715 µM) | MIC Coagulase Negative Staphylococcus (GC 4548) (Staphylococcus sp.; Coagulase Negative Staphylococcus (GC 4548)): 1 µg/mL (≈ 0.715 µM) | MIC Coagulase Negative Staphylococcus (GC 4549) (Staphylococcus sp.; Coagulase Negative Staphylococcus (GC 4549)): 0.5 µg/mL (≈ 0.357 µM) | MIC Coagulase Negative Staphylococcus (GC 4551) (Staphylococcus sp.; Coagulase Negative Staphylococcus (GC 4551)): 2 µg/mL (≈ 1.43 µM) | MIC Coagulase Negative Staphylococcus (GC 6257) (Staphylococcus sp.; Coagulase Negative Staphylococcus (GC 6257)): 1 µg/mL (≈ 0.715 µM) | MIC Staphylococcus aureus (ATCC 29213) (Staphylococcus sp.; Staphylococcus aureus (ATCC 29213)): 2 µg/mL (≈ 1.43 µM) | MIC Staphylococcus aureus (GC 1131) (Staphylococcus sp.; Staphylococcus aureus (GC 1131)): 2 µg/mL (≈ 1.43 µM) | MIC Staphylococcus aureus (GC 3051) (Staphylococcus sp.; Staphylococcus aureus (GC 3051)): 2 µg/mL (≈ 1.43 µM) | MIC Staphylococcus aureus (GC 3053) (Staphylococcus sp.; Staphylococcus aureus (GC 3053)): 2 µg/mL (≈ 1.43 µM) | MIC Staphylococcus aureus (GC 4541) (Staphylococcus sp.; Staphylococcus aureus (GC 4541)): 2 µg/mL (≈ 1.43 µM) | MIC Staphylococcus aureus (GC 4542) (Staphylococcus sp.; Staphylococcus aureus (GC 4542)): 2 µg/mL (≈ 1.43 µM) | MIC Staphylococcus aureus (GC 4544) (Staphylococcus sp.; Staphylococcus aureus (GC 4544)): 2 µg/mL (≈ 1.43 µM) | MIC Staphylococcus aureus (GC 4545) (Staphylococcus sp.; Staphylococcus aureus (GC 4545)): 2 µg/mL (≈ 1.43 µM) | MIC Staphylococcus aureus-SMITH (GC 4543) (Staphylococcus sp.; Staphylococcus aureus-SMITH (GC 4543)): 2 µg/mL (≈ 1.43 µM) | MIC Staphylococcus haemolyticus (GC 4546) (Staphylococcus sp.; Staphylococcus haemolyticus (GC 4546)): 1 µg/mL (≈ 0.715 µM) | MIC Streptococcus agalactiae (GC 4564) (Streptococcus sp.; Streptococcus agalactiae (GC 4564)): 0.5 µg/mL (≈ 0.357 µM) | MIC Streptococcus pneumoniae (ATCC 6301) (Streptococcus sp.; Streptococcus pneumoniae (ATCC 6301)): 0.25 µg/mL (≈ 0.179 µM) | MIC Streptococcus pneumoniae (GC 1894) (Streptococcus sp.; Streptococcus pneumoniae (GC 1894)): 0.12 µg/mL (≈ 0.0857 µM) | MIC Streptococcus pneumoniae (GC 4565) (Streptococcus sp.; Streptococcus pneumoniae (GC 4565)): 0.25 µg/mL (≈ 0.179 µM) | MIC Streptococcus pyogenes (GC 4563) (Streptococcus sp.; Streptococcus pyogenes (GC 4563)): 0.5 µg/mL (≈ 0.357 µM) | MIC Streptococcus agalactiae (GC 4564) (Streptococcus sp.; [1]): 0.5 µg/mL (≈ 0.357 µM) | MIC Streptococcus pneumoniae (ATCC 6301) (Streptococcus sp.; [1]): 0.25 µg/mL (≈ 0.179 µM) | MIC Streptococcus pneumoniae (GC 1894) (Streptococcus sp.; [1]): 0.12 µg/mL (≈ 0.0857 µM) | MIC Streptococcus pneumoniae (GC 4565) (Streptococcus sp.; [1]): 0.25 µg/mL (≈ 0.179 µM) | MIC Streptococcus pyogenes (GC 4563) (Streptococcus sp.; [1]): 0.5 µg/mL (≈ 0.357 µM)
